# Source: PubChem BioAssay AID504678 (The Scripps Research Institute Molecular Screening Center, 2011)
# Calls of active or inactive are those of the source.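 The calls were made as follows: active = compound whose IC50 against bacterial viability is at or below 10 µM; inactive = IC50 above 10 µM.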
# System: E. coli V3065 growth, OD600 absorbance
# Test: E. coli V3065 growth inhibition, dose response, counter-screen for AddAB recombination inhibitor project, absorbance, OD600 (AID 504678)
row,Compound,IC50
1,O=C(Nc1ncccn1)c1ccc([N+](=O)[O-])o1,33 µM (inactive)
2,N#Cc1c(NC(=O)c2ccc([N+](=O)[O-])o2)sc2c1CCC2,> 119 µM (inactive)
3,NC(=O)c1ccsc1NC(=O)COC(=O)c1ccc([N+](=O)[O-])o1,> 119 µM (inactive)
4,Cc1ccc2nc(/C(C#N)=C\c3ccc([N+](=O)[O-])o3)[nH]c2c1,> 119 µM (inactive)
5,CC(=O)Nc1ccc2nc(NC(=O)c3ccc([N+](=O)[O-])o3)sc2c1,> 119 µM (inactive)
6,O=C(OCC(=O)c1cccs1)c1ccc([N+](=O)[O-])o1,> 119 µM (inactive)
7,Cc1cccnc1NC(=O)c1ccc([N+](=O)[O-])o1,39.5 µM (inactive)
8,O=C(NCc1cccnc1)c1ccc([N+](=O)[O-])o1,> 39.5 µM (inactive)
9,C=CCn1c(Sc2ncc([N+](=O)[O-])s2)n[nH]c1=O,20.4 µM (inactive)
10,CCn1cc(C(=O)O)c(=O)c2cnc(N3CCN(C(=S)Nc4ccccc4C(F)(F)F)CC3)nc21,> 39.5 µM (inactive)
11,O=C(Nc1cccc(NC(=O)c2ccccc2Cl)c1)c1ccc([N+](=O)[O-])o1,> 119 µM (inactive)
12,O=C(Nc1ccc(N2CCOCC2)cc1)c1ccc([N+](=O)[O-])o1,17.3 µM (inactive)
